Laboratory results as given in patent publication US11634447B2 (priority 2012, dated 2023).

How the values were obtained:
[1] = target: T1, FimH-CRD (Escherichia coli, UniProt P08191); test: Competitive binding assay by fluorescence polarization, assay 1 (compounds prepared by manual dilution); design: species or system E. coli
T1 construct: The first 177 amino acids of the FimH protein are expressed as a fusion protein; thrombin tag (printed as 'fusion protein with thrombin') (cleaved yes); made in house; host or cells: bacteria (pET21b plasmid)
T1 sequence (P08191 22-177): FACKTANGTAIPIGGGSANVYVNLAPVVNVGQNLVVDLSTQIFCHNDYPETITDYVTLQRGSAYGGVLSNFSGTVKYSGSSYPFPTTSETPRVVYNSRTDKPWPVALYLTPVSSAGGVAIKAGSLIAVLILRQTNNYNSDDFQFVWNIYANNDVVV
Outline: (§1)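 FimH-CRD (residues 1-177, tag removed) at 60 nM competed against 5 nM Alexa 647 mannoside probe in 50 mM Tris-Cl pH 7.0, 100 mM NaCl, 1 mM EDTA, 5 mM β-mercaptoethanol, 0.05% BSA, 2.5% DMSO; 5 h, room temperature, dark. Compounds 0.4 nM-75 μM final, 12-point 3-fold, duplicate; Kd from fluorescence polarization displacement curves. Assay 1: manual dilution; assay 2: robotic dilution, plates frozen/thawed.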

[2] = target: T1, FimH-CRD; test: Competitive binding assay by fluorescence polarization, assay 2 (compounds prepared by a robotics system, plates frozen and thawed); design: species or system E. coli
Outline: as §1

Measured: Kd

OC[C@H]1O[C@H](Cc2ccc(-c3ccc(C[C@H]4O[C@H](CO)[C@@H](O)[C@H](O)[C@@H]4O)cc3)cc2)[C@@H](O)[C@@H](O)[C@@H]1O [Compound 41, ((2R,3S,4R,5S,6R)-2-(Hydroxymethyl)-6-[[4-[4-[[(2R,3S,4R,5S,6R)-3,4,5-trihydroxy-6-(hydroxymethyl)tetrahydropyran-2-yl]methyl]phenyl]phenyl]methyl]tetrahydropyran-3,4,5-triol)]
< 5 nM: [1]; Assay 1 Kd, 5 nM Alexa 647 mannoside probe, 60 nM FimH-CRD, replicate values in one cell | [1]; read-out: Assay 1 Kd, 5 nM Alexa 647 mannoside probe, 60 nM FimH-CRD, replicate values in one cell | [2]; Assay 2 Kd, 5 nM Alexa 647 mannoside probe, 60 nM FimH-CRD, replicate values in one cell | [2]; read-out: Assay 2 Kd, 5 nM Alexa 647 mannoside probe, 60 nM FimH-CRD, replicate values in one cell
